# Residues, ends and D or L forms follow the SMILES beside them. *: point of attachment. X51 = O=C(O)[C@@H](CC(=O)*)SCc1ccc([N+](=O)[O-])cc1; X16 = O=C(O)[C@H](CC(=O)*)SCc1ccc(Cl)c(Cl)c1; X28 = O=C(O)[C@@H](CC(=O)*)Sc1ccc(Cl)c(Cl)c1; X39 = O=C(O)[C@H](CC(=O)*)Sc1cc(Cl)cc(Cl)c1; X74 = O=C(O)[C@@H](CC(=O)*)SCc1ccc(Cl)cc1Cl; X23 = O=C(O)[C@@H](CC(=O)*)Sc1cccc2ccccc12; X24 = O=C(O)[C@H](CC(=O)*)SCc1ccc(Cl)cc1Cl; X41 = O=C(O)[C@@H](CC(=O)*)Sc1cc(Cl)ccc1Cl; X30 = COc1ccc(S[C@H](CC(=O)*)C(=O)O)cc1OC; X31 = O=C(O)[C@H](CC(=O)*)Sc1cccc(Cl)c1Cl; X10 = Cc1noc(C)c1CCS[C@H](CC(=O)*)C(=O)O; X14 = O=C(O)[C@H](CC(=O)*)SCc1ccc(Cl)cc1; X19 = O=C(O)[C@H](CC(=O)*)Sc1ccc(Cl)cc1; X21 = O=C(O)[C@@H](CC(=O)*)SC1CCCCC1; Bz = O=C(c1ccccc1)*
# Target: NAD-dependent protein deacylase sirtuin-5, mitochondrial (Homo sapiens, UniProt Q9NXA8)
# Sequence (Q9NXA8 whole entry): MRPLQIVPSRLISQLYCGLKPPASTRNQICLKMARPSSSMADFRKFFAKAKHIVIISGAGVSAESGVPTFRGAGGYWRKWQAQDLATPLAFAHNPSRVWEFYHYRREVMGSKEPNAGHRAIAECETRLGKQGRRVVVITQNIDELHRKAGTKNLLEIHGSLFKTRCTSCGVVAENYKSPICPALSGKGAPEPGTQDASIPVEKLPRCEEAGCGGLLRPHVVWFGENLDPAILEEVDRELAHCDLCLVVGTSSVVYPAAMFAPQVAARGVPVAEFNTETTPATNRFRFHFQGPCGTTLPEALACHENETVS
# Experiment: Inhibition of human recombinant N-terminal Strep2-tagged SIRT5 expressed in Escherichia coli BL21 (DE3) using Abz-GVLK(glutaryl)AY(NO2)GV-NH2 as substrate in presence of NAD+ by fluorescence assay
row,SMILES,IC50 [nM]
1,O=C(C[C@H](Sc1ccc2ccccc2c1)C(=O)O)Nc1ccccc1,157000
2,CC(C)C[C@H](NC(=O)[C@@H](NC(=O)CNC(=O)c1ccccc1)C(C)C)C(=O)N[C@@H](CCCCNC(=O)C[C@@H](SCc1ccc([N+](=O)[O-])cc1)C(=O)O)C(=O)N[C@@H](CCC(=O)O)C(=O)N[C@@H](Cc1ccc(O)cc1)C(=O)NCC(=O)N[C@H](C(N)=O)C(C)C (Bz-GVLK(X51)EYGV-NH2),4030
3,CC(C)C[C@H](NC(=O)[C@@H](NC(=O)CNC(=O)c1ccccc1)C(C)C)C(=O)N[C@@H](CCCCNC(=O)C[C@@H](Sc1cccc2ccccc12)C(=O)O)C(=O)N[C@@H](CCC(=O)O)C(=O)N[C@@H](Cc1ccc(O)cc1)C(=O)NCC(=O)N[C@H](C(N)=O)C(C)C (Bz-GVLK(X23)EYGV-NH2),2200
4,CC(C)C[C@H](NC(=O)[C@@H](NC(=O)CNC(=O)c1ccccc1)C(C)C)C(=O)N[C@@H](CCCCNC(=O)C[C@@H](Sc1cc(Cl)ccc1Cl)C(=O)O)C(=O)N[C@@H](CCC(=O)O)C(=O)N[C@@H](Cc1ccc(O)cc1)C(=O)NCC(=O)N[C@H](C(N)=O)C(C)C (Bz-GVLK(X41)EYGV-NH2),1980
5,CC(C)C[C@H](NC(=O)[C@@H](NC(=O)CNC(=O)c1ccccc1)C(C)C)C(=O)N[C@@H](CCCCNC(=O)C[C@@H](SC1CCCCC1)C(=O)O)C(=O)N[C@@H](CCC(=O)O)C(=O)N[C@@H](Cc1ccc(O)cc1)C(=O)NCC(=O)N[C@H](C(N)=O)C(C)C (Bz-GVLK(X21)EYGV-NH2),> 14000
6,CC(C)C[C@H](NC(=O)[C@@H](NC(=O)CNC(=O)c1ccccc1)C(C)C)C(=O)N[C@@H](CCCCNC(=O)C[C@@H](Sc1ccc(Cl)c(Cl)c1)C(=O)O)C(=O)N[C@@H](CCC(=O)O)C(=O)N[C@@H](Cc1ccc(O)cc1)C(=O)NCC(=O)N[C@H](C(N)=O)C(C)C (Bz-GVLK(X28)EYGV-NH2),1610
7,CC(C)C[C@H](NC(=O)[C@@H](NC(=O)CNC(=O)c1ccccc1)C(C)C)C(=O)N[C@@H](CCCCNC(=O)C[C@H](SCc1ccc(Cl)cc1)C(=O)O)C(=O)N[C@@H](CCC(=O)O)C(=O)N[C@@H](Cc1ccc(O)cc1)C(=O)NCC(=O)N[C@H](C(N)=O)C(C)C (Bz-GVLK(X14)EYGV-NH2),893
8,COc1ccc(S[C@H](CC(=O)NCCCC[C@H](NC(=O)[C@H](CC(C)C)NC(=O)[C@@H](NC(=O)CNC(=O)c2ccccc2)C(C)C)C(=O)N[C@@H](CCC(=O)O)C(=O)N[C@@H](Cc2ccc(O)cc2)C(=O)NCC(=O)N[C@H](C(N)=O)C(C)C)C(=O)O)cc1OC (Bz-GVLK(X30)EYGV-NH2),9080
9,Cc1noc(C)c1CCS[C@H](CC(=O)NCCCC[C@H](NC(=O)[C@H](CC(C)C)NC(=O)[C@@H](NC(=O)CNC(=O)c1ccccc1)C(C)C)C(=O)N[C@@H](CCC(=O)O)C(=O)N[C@@H](Cc1ccc(O)cc1)C(=O)NCC(=O)N[C@H](C(N)=O)C(C)C)C(=O)O (Bz-GVLK(X10)EYGV-NH2),18500

# Now those with a lower IC50, led by results:
row,IC50 [nM],SMILES
1,740,CC(C)C[C@H](NC(=O)[C@@H](NC(=O)CNC(=O)c1ccccc1)C(C)C)C(=O)N[C@@H](CCCCNC(=O)C[C@H](SCc1ccc(Cl)c(Cl)c1)C(=O)O)C(=O)N[C@@H](CCC(=O)O)C(=O)N[C@@H](Cc1ccc(O)cc1)C(=O)NCC(=O)N[C@H](C(N)=O)C(C)C (Bz-GVLK(X16)EYGV-NH2)
2,715,CC(C)C[C@H](NC(=O)[C@@H](NC(=O)CNC(=O)c1ccccc1)C(C)C)C(=O)N[C@@H](CCCCNC(=O)C[C@H](Sc1cccc(Cl)c1Cl)C(=O)O)C(=O)N[C@@H](CCC(=O)O)C(=O)N[C@@H](Cc1ccc(O)cc1)C(=O)NCC(=O)N[C@H](C(N)=O)C(C)C (Bz-GVLK(X31)EYGV-NH2)
3,543,CC(C)C[C@H](NC(=O)[C@@H](NC(=O)CNC(=O)c1ccccc1)C(C)C)C(=O)N[C@@H](CCCCNC(=O)C[C@H](SCc1ccc(Cl)cc1Cl)C(=O)O)C(=O)N[C@@H](CCC(=O)O)C(=O)N[C@@H](Cc1ccc(O)cc1)C(=O)NCC(=O)N[C@H](C(N)=O)C(C)C (Bz-GVLK(X24)EYGV-NH2)
4,432,CC(C)C[C@H](NC(=O)[C@@H](NC(=O)CNC(=O)c1ccccc1)C(C)C)C(=O)N[C@@H](CCCCNC(=O)C[C@@H](SCc1ccc(Cl)cc1Cl)C(=O)O)C(=O)N[C@@H](CCC(=O)O)C(=O)N[C@@H](Cc1ccc(O)cc1)C(=O)NCC(=O)N[C@H](C(N)=O)C(C)C (Bz-GVLK(X74)EYGV-NH2)
5,102,CC(C)C[C@H](NC(=O)[C@@H](NC(=O)CNC(=O)c1ccccc1)C(C)C)C(=O)N[C@@H](CCCCNC(=O)C[C@H](Sc1ccc(Cl)cc1)C(=O)O)C(=O)N[C@@H](CCC(=O)O)C(=O)N[C@@H](Cc1ccc(O)cc1)C(=O)NCC(=O)N[C@H](C(N)=O)C(C)C (Bz-GVLK(X19)EYGV-NH2)
6,86.1,CC(C)C[C@H](NC(=O)[C@@H](NC(=O)CNC(=O)c1ccccc1)C(C)C)C(=O)N[C@@H](CCCCNC(=O)C[C@H](Sc1cc(Cl)cc(Cl)c1)C(=O)O)C(=O)N[C@@H](CCC(=O)O)C(=O)N[C@@H](Cc1ccc(O)cc1)C(=O)NCC(=O)N[C@H](C(N)=O)C(C)C (Bz-GVLK(X39)EYGV-NH2)
